Reference: patent US5876715A, “Antibodies that bind novel carbohydrate ligands (myelorollins) that cause E-selectin dependent cell rolling, and uses thereof” (The Biomembrane Institute, priority 1996, dated 1999)
Entries after “also recorded” stand apart in the source; their conditions may differ.

Test system: E-selectin-expressing CHO cells
Experiment: Rolling and adhesion of E-selectin-expressing CHO cells on ganglioside-coated beads under dynamic flow (parallel plate laminar flow chamber)
Format: cell-based, Chinese hamster
Conditions: for rolling and adhesion of E-selectin-expressing CHO cells / adhesion of E-selectin-expressing CHO cells / rolling of E-selectin-expressing CHO cells: dynamic flow conditions, shear stress 0.6-12 dynes/cm^2; for rolling and adhesion of E-selectin-expressing CHO cells at 100 ng ganglioside: 100 ng of single fraction or mixture of 50 ng each, 1 μm beads, 4.8 and 2.4 dynes/cm^2 (FIG. 3A); for rolling and adhesion of E-selectin-expressing CHO cells at low ganglioside quantity: 0.05-0.1 ng ganglioside per spot (mixture 0.05 ng each), 1 μm beads (FIGS. 3B, 4A, 4B)
Text: FIGS. 2A-2E show rolling and adhesion of E-selectin-expressing CHO cells to polystyrene beads coated with various gangliosides under dynamic flow conditions. Various poly-LacNac gangliosides were quantitatively adsorbed on beads affixed to glass microscope slides as described in the Materials & Methods section in the EXAMPLE. These polystyrene beads affixed on galss plates are resistant to dynamic flow. GSL coated on beads are therefore very stable in dynamic flow. Slides were blocked by placing 2% BSA in PBS at room temp for 1 hr, and assembled in a parallel-plate laminar-flow chamber. E-selectin-expressing CHO cells were freshly harvested and suspended in RPMI medium (1×10^5 cells/mL). The cell suspensions were placed in an infusion pump connected to the flow chamber, and infused into the assembly at various laminar flow rates. Cell movements were observed under phase-contrast microscope and recorded by videocassette recorder. Numbers of rolling cells (.smallcircle.) and adherent (nonrolling) cells (.circle-solid.), in at least 10 microscope fields, at four different shear stresses (dynes/cm^2; see abscissa), were plotted.
Polystyrene latex beads ([…] or 1 μm) used as carriers of GSLs as above were suspended in ethanol. 1 μL aliquots of suspension were placed on precleaned and specially treated microscope slides (Labcraft Superfrost® Plus, Curtin Matheson Scientific, Houston, Tex.). Beads were distributed homogeneously on the glass surface within a circular spot with diameter about 1 cm. Slides were heated at 150° C. for 50 sec, which caused the beads to adhere strongly to the surface such that they could not be washed off by water stream at various velocities. Gangliosides dissolved in IHW at the same molar concentration were applied to latex beads affixed on the slides; namely, 1 μL aliquots containing 50-100 or 0.05-0.1 ng ganglioside were placed on the center of a circular spot. The ganglioside thus became affixed to the bead surface.
Slides prepared as above, as they are or after treatment consisted of incubating said slides for at least an hour at room temperature with 3% BSA prewarmed at 37° C. and washing with PBS containing CA^2+ /Mg^2+ (i.e., PBS(+)) were placed in a parallel plate laminar flow chamber connected to an infusion pump (model 935, Harvard Apparatus, Cambridge, Mass.). The assembly, originally described by Lawrence et al. (Lawrence et al., 1990, Blood 75:227-237; Lawrence and Springer, 1991, Cell 65:859-873), simulates the flow shear stress present in physiological microvascular environments. A laminar flow with defined rate and wall shear stress is achieved by manipulation of the infusion pump, which is connected to the inlet of the flow chamber. A suspension of E- or P-selectin-expressing CHO cells (1×10^5 /mL in FIGS. 2A-2E, 2×10^5/ cells mL in FIG. 3A, 5×10^5 /cells mL in FIGS. 3B, 4A and 4B), freshly harvested from culture with EDTA, washed, and resuspended in 1% FCS-RPMI medium, was infused into the assembly at various laminar flow rates. Cell movements were observed under inverted phase-contrast microscope (Diaphot-TMD, Nikon) and recorded by time-lapse videocassette recorder. Cell rolling and adhesion were observed, and numbers of rolling and adherent cells during a 2 min period at shear stresses, from 0.6-12.0 dynes/cm^2 were counted from at least 10 fields on videotape. Wall shear stress (T) was calculated by the equation of Lawrence et al. (Lawrence et al., 1990 Blood 75:227-237; Lawrence et al., 1987, Blood 70: 1284-1290): T=3 μQ/2ba^2, where μ=coefficient of viscosity (1.0 cP), Q=volumetric flow rate (cm^3 /sec), a=half channel height (in this case, 5.7×10^-3 cm), and b=channel width (1.3 cm).
10, 13-1, and 14 (containing Str. 4-5, Str. 7-8, and Str. 9-12 in Table 1, respectively). […] 10 and 14, which have myelorollin structure and lack SLe^x epitope (FIG. 4). Polystyrene beads were affixed to glass microscope slides. Various gangliosides were coated as described in Materials & Methods. […]

| Substance | rolling and adhesion of E-selectin-expressing CHO cells | rolling and adhesion of E-selectin-expressing CHO cells at 100 ng ganglioside (dynamic flow) | rolling and adhesion of E-selectin-expressing CHO cells at low ganglioside quantity (dynamic flow) | adhesion of E-selectin-expressing CHO cells | rolling of E-selectin-expressing CHO cells | further results |
| --- | --- | --- | --- | --- | --- | --- |
| VIII^3 NeuAcIII^3 FucnLc8 Cer [Fr. 10-2] | strong rolling and adhesion | comparable rolling and Vadhesion; also recorded: comparable to each other; also recorded: comparable adhesion | still produced marked rolling and adhesion |  |  | rolling and adhesion of E-selectin-expressing CHO cells at 100 ng ganglioside (dynamic flow, listed as 10-2): comparable; rolling and adhesion of E-selectin-expressing CHO cells at low ganglioside quantity (dynamic flow, listed as 10-2): still produced marked rolling/adhesion |
| VIII^3 NeuAcV^3 FucnLc8 Cer [Fr. 10-1] | strong rolling and adhesion | comparable rolling and Vadhesion; also recorded: comparable to each other; also recorded: comparable adhesion | did not |  |  | rolling and adhesion of E-selectin-expressing CHO cells at 100 ng ganglioside (dynamic flow, listed as 10-1): comparable |
| VI^3 NeuAcV^3 FucIII^3 FucnLc6 Cer [SLe^x -Le^x, reference compound] | weaker than myelorollin structures; also recorded: weaker than myeloglycan or myelorollin structures |  | no rolling or adhesion; also recorded: no rolling and adhesion observed; also recorded: essentially no cell rolling and adhesion; also recorded: did not cause any E-selectin-dependent cell rolling or adhesion | Low level of adhesion without rolling; also recorded: adherent, but not rolling; also recorded: significantly lower than for Fr. 13-1 or 14; also recorded: only weak adhesion compared to Fr. 10-1, 10-2, 13-1 and 14; also recorded: relatively weak adhesion compared to Fr. 10-1, 10-2, 13-1, and 14 | not observed (or barely observed); also recorded: No rolling was observed | adhesion of E-selectin-expressing CHO cells (listed as Str. 3): did produce cell adhesion, but to a lesser extent than the myelorollin fractions; also recorded: lower level of adhesion; rolling of E-selectin-expressing CHO cells (listed as Str. 3): no cell rolling; rolling of E-selectin-expressing CHO cells (listed as sialyl Le^x -Le^x): No rolling was observed; rolling number (dynamic flow, 4 μm beads, every field at all shear stresses (FIG. 2A)): 0; number of cells adhered without rolling (dynamic flow, shear stresses 12 to 1.2 dynes/cm^2 (FIG. 6A)): less than 5 /field |
| VI^3 NeuAcnLc6 Cer [Fr. 7] |  |  |  | no cell adhesion |  |  |
| X^3 NeuAcVII^3 FucV^3 FucnLc10 Cer [Fr. 13-1] |  |  |  |  | more frequent at 4.8 and 2.4 than at 1.2 dynes/cm^2; also recorded: caused strong rolling | shear stress at which plain rolling and rolling followed by adhesion was maximal / most clearly observed (dynamic flow, 12, 4.8, 2.4, 1.2 and 0.6 dynes/cm^2 (FIGS. 6A-6D)): 2.4 dynes/cm^2; shear stress at which rolling (rolling/adhesion) was highest (dynamic flow, ganglioside on 1 μm beads (FIGS. 2D, 2E)): 4.8 dynes/cm^2 |
| X^3 NeuAcVII^3 FucnLc10 Cer [Fr. 12-2] | lower than for Frs. 13-1 and 14 (FIGS. 2C and 2E), but comparable to SLe^x -Le^x; also recorded: lower than for Fr. 13-1 and 14 (FIG. 2C and FIG. 2E), but comparable to SLe^x -Le^x |  |  |  |  | Number of E-selectin expressing cells adhered on myelorollin under dynamic flow, column 5 (0.6-1.2 dynes/cm^2, column head 5 (not explained)): 5 (±2); Number of E-selectin expressing cells adhered on myelorollin under dynamic flow, column 10 (0.6-1.2 dynes/cm^2, column head 10 (not explained)): 3 (±1); shear stress at which rolling was highest (dynamic flow, ganglioside on 4 μm beads (FIG. 2B)): 4.8 dynes/cm^2 |
